Assays:
JAK1 = JAK1 (Homo sapiens, UniProt P23458); assay: Biochemical JAK kinase assay (LanthaScreen) JAK1
Method: (§1) A panel of four LanthaScreen JAK biochemical assays (JAK1, 2, 3 and Tyk2) were carried in a common kinase reaction buffer (50 mM HEPES, pH 7.5, 0.01% Brij-35, 10 mM MgCl2, and 1 mM EGTA). Recombinant GST-tagged JAK enzymes and a GFP-tagged STAT1 peptide substrate were obtained from Life Technologies.
(§2) Serially diluted compounds were pre-incubated with each of the four JAK enzymes and the substrate in white 384-well microplates (Corning) at ambient temperature for 1 h. ATP was subsequently added to initiate the kinase reactions in 10 μL total volume, with 1% DMSO. […] The JAK1 kinase activity was also tested at 1 mM ATP concentration. […] The plates were allowed to incubate at ambient temperature for 1 h before being read on the EnVision reader (Perkin Elmer).
(§3) For dose-response analysis, percent inhibition data were plotted vs. compound concentrations, and IC50 values were determined from a 4-parameter robust fit model with the Prism software (GraphPad Software). Results were expressed as pIC50 (negative logarithm of IC50) and subsequently converted to pKi (negative logarithm of dissociation constant, Ki) using the Cheng-Prusoff equation.

[1] = Metabolic stability of comparison compounds in rat colon content; assay type: in vitro ADME; conditions: 10 μM in rat colonic content, up to 120 min
Method: Colonic fecal content was harvested from a naïve male Sprague Dawley rat and was diluted 1:10 (1 gram to 9 mL phosphate buffer) and then homogenized using a handheld Omni Tissue Master. […] A 5 μL aliquot of diluted test compound was spiked into 300 μL of rat colonic content homogenate to begin the reaction at 37° C. Aliquots (50 μL) were removed from the incubation at the following time points (0, 15, 50, 85, and 120 min) and added into 200 μL of ACN with 3% formic acid and an internal standard molecule. […] All samples were centrifuged at 2000×g for 10 min after which 50 μL of supernatant was diluted into 150 μL of water and analyzed using a Thermo Q-Exactive LC-MS system. GraphPad Prism and Microsoft Excel were used to tabulate and plot the data.

[2] = Metabolic stability in homogenates from rat upper and lower intestinal content; assay type: in vitro ADME; conditions: 37° C.; for half-life: 10 μM; for half-life at 10 μM: rat, diluted 1:10 in DPBS
Method: The conversion of compound 1 to tofacitinib was evaluated in the intestinal lumen content prepared from the various GI segments isolated from freshly sacrificed rats. Each segment of content from the duodenum, jejunum, ileum, and colon was diluted 1:10 in Dulbecco's phosphate buffer saline (DPBS) solution. […] The incubation was conducted in a water bath at 37° C. and time points were taken at 0, 5, 10, 20, 40 and 60 min. The total incubation volume was 400 μL and 40 μL aliquots were taken at each time point and diluted into 160 μL of 97% ACN+3% formic acid+an internal standard. The samples were centrifuged at 2200 rcf for 10 min and 50 μL of supernatant was diluted into 150 μL of water+1% formic acid.

[3] = Oral pharmacokinetics of compound 1 in cynomolgus monkey; assay type: in vivo; conditions: oral administration of the prodrug
β-glucuronidase = β-glucuronidase (Escherichia coli, UniProt P05804); assay: Metabolic stability of compound 1 in β-glucuronidase from E. coli; assay type: in vitro ADME; conditions: purified β-glucuronidase from E. coli, β-glucuronidase 100 Units/mL, 37° C.
Sequence of β-glucuronidase (P05804 whole entry): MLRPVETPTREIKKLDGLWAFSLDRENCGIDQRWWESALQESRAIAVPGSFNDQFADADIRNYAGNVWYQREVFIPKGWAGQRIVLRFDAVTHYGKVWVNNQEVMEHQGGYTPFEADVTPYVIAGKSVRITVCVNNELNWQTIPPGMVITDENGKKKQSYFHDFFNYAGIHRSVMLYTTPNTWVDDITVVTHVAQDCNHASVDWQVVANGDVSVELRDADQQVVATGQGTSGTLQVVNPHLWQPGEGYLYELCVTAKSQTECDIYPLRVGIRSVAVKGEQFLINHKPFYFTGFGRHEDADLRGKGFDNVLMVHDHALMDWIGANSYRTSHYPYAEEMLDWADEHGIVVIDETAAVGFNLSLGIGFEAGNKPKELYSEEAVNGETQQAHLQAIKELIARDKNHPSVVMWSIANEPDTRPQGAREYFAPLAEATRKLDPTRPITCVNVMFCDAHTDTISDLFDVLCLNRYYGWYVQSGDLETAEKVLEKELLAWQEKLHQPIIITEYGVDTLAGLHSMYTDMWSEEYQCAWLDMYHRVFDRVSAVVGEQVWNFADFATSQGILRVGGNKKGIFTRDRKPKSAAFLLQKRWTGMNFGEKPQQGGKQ
Method: The incubations were quenched at timepoints 0, 1, 2, 3, 5, 10, 15, 30, 60, and 90 min by addition of 100 μL of ACN. Samples were diluted with water+1% formic acid (4×) and analyzed using a Thermo Q-Exactive™ LC-MS system.

[4] = Rat colon fecal homogenate stability; assay type: in vitro ADME; conditions: male, rat colon fecal homogenate supernatant, 10 μM, read-out: T½ (In vitro colonic stability, loss of pro-drug)
Method: The objective of this study was to determine the stability of the present compounds in rat colon fecal homogenate, i.e. the half-life for decomposition in the presence of the β-glucuronidase in rat colon feces.
Following sacrifice of a naïve male rat (˜300 g) by cardiac puncture exsanguination, the colon was ligated and removed to an anaerobic chamber (AS-580, Anaerobe Systems). The fecal content was removed within the chamber and was diluted 1:10 (1 gram to 9 mL phosphate buffer) and then homogenized using a handheld Omni Tissue Master. The fecal homogenate was centrifuged at 2000 g for 10 min to remove bulk and the supernatant was removed and used for the incubations.
Test articles and a positive control (sulfasalazine) were prepared as 10 mM DMSO stocks. The final substrate concentration of each assay was 10 μM (30 μM for compound 5). Reactions were started by adding a 5 μL aliquot of diluted test compound stock into 300 μL of rat fecal supernatant-homogenate. At 0, 15, 30, 60, 90, and 120 min post reaction initiation, a 50 μL aliquot was removed into 200 μL of acetonitrile with 3% formic acid and an internal standard molecule. All samples were centrifuged at 2000 g for 10 min after which 50 μL of supernatant was diluted into 150 μL of water for analysis on an LC-MS system. In vitro half-lives for loss of pro-drug were calculated as follows: (T½=0.693/elimination rate constant).

JAK3 = biological target: T1, JAK3 (Homo sapiens, UniProt P52333); assay: Biochemical JAK kinase assay (LanthaScreen) JAK3
T1 sequence (P52333 1-1124): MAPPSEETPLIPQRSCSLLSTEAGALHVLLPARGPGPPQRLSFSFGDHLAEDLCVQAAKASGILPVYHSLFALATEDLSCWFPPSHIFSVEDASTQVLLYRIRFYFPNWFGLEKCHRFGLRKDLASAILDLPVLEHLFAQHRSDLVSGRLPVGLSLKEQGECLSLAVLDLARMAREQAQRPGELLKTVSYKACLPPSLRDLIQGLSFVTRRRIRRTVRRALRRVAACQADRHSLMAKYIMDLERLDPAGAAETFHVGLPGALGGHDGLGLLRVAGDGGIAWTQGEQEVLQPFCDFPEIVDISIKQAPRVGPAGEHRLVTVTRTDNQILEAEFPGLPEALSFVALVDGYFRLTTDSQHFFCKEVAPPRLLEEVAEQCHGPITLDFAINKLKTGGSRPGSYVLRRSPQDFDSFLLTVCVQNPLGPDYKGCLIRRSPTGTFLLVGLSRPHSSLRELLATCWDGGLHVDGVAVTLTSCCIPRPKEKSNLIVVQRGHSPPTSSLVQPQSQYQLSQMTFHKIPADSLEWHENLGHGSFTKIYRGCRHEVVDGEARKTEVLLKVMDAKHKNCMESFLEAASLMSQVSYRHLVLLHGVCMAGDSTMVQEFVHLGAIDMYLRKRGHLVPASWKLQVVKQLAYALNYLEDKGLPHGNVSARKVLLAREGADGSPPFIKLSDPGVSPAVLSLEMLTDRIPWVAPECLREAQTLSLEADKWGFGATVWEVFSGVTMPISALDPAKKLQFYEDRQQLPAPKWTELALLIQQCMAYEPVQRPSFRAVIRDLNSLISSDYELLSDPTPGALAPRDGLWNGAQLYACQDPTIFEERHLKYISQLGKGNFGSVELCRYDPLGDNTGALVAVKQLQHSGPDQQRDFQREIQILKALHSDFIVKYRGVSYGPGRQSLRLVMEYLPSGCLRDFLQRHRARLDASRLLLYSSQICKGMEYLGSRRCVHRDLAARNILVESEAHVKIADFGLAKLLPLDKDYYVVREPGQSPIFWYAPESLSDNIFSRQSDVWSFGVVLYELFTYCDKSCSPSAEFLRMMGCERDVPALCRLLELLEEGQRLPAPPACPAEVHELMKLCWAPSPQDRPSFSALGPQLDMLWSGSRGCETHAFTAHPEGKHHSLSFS
Method: as §1, §2, §3

JAK2 = JAK2 (Homo sapiens, UniProt O60674); assay: Biochemical JAK kinase assay (LanthaScreen) JAK2
Sequence of JAK2 (O60674 whole entry): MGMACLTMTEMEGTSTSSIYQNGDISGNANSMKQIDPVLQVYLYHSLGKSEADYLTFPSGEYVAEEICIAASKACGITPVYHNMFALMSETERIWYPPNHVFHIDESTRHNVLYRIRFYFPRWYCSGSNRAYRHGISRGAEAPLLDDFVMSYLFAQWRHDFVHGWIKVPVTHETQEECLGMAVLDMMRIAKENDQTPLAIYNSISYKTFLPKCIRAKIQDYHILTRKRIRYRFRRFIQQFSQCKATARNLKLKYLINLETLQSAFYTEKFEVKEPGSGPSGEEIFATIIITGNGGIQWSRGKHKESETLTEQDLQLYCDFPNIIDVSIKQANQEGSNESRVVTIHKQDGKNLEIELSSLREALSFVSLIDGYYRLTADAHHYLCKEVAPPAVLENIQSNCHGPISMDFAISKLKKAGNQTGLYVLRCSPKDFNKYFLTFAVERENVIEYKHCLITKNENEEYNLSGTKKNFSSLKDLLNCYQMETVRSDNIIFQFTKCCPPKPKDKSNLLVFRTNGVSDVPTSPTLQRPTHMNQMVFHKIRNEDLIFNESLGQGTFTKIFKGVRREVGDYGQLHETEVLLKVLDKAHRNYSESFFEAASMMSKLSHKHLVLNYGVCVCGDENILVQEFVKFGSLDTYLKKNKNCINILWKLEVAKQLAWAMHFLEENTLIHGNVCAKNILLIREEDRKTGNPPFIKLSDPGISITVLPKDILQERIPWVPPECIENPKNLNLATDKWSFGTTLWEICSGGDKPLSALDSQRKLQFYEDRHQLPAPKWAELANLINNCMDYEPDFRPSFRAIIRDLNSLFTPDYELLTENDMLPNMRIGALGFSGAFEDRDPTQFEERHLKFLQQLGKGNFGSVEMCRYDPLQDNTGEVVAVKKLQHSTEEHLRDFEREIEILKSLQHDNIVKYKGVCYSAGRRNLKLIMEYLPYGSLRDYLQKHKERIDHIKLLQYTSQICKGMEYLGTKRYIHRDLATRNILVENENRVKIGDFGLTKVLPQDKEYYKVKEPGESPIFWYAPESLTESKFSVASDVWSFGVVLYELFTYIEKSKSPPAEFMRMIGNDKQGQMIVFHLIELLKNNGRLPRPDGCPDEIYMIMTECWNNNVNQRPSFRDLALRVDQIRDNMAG
Method: as §1, §2, §3

Sequence of JAK1 (P23458 whole entry): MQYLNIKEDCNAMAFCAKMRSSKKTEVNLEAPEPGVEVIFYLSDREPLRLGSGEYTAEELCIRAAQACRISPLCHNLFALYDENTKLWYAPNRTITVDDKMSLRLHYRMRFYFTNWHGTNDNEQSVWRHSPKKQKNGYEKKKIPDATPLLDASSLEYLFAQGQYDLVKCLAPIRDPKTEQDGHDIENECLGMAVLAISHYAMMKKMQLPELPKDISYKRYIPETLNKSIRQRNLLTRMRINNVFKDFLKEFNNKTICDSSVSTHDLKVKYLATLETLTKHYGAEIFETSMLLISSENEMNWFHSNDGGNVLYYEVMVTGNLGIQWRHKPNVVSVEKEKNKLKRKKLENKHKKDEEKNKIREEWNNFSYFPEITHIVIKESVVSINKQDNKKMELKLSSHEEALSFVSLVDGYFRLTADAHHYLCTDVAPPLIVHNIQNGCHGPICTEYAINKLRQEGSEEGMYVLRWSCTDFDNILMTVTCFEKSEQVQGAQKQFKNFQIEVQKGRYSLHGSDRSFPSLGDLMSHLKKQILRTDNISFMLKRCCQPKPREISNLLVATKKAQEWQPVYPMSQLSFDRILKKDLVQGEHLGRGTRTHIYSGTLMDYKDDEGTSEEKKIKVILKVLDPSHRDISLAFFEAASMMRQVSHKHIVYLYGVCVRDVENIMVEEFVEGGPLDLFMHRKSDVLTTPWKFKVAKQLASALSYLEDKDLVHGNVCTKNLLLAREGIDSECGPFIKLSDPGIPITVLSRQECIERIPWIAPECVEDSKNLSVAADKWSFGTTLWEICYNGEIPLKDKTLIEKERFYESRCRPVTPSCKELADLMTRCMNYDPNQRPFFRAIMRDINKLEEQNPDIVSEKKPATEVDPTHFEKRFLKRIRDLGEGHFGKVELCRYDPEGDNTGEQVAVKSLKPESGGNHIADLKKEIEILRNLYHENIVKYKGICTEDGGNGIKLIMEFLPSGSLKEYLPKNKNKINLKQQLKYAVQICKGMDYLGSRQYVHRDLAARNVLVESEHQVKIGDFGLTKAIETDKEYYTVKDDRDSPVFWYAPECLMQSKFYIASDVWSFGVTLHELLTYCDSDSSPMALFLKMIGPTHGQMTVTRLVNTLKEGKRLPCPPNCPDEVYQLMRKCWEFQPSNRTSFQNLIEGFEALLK

C[C@@H]1CCN(C(=O)CC#N)C[C@@H]1N(C)c1ncnc2c1ccn2C(=O)N(C)CCN(C)C(=O)OCc1ccc(O[C@@H]2O[C@H](C(=O)O)[C@@H](O)[C@H](O)[C@H]2O)c([N+](=O)[O-])c1 [Compound 1, (2S,3S,4S,5R,6S)-6-(4-((((2-(4-(((3R,4R)-1-(2-cyanoacetyl)-4-methylpiperidin-3-yl)(methyl)amino)-N-methyl-7H-pyrrolo[2,3-d]pyrimidine-7-carboxamido)ethyl)(methyl)carbamoyl)oxy)methyl)-2-nitrophenoxy)-3,4,5-trihydroxytetrahydro-2H-pyran-2-carboxylic acid]
IC50 (JAK1): > 10000 nM
Ki (JAK1): > 501 nM
generation of active metabolite from the pro-drug [1]: generated measurable levels
half-life ([2]; Colon content): <5 min
half-life ([2]; Duodenum content): >60 min
half-life ([2]; Jejunum content): >60 min
half-life at 10 μM ([2]; colon lumen content, Colon content): < 5 min
half-life at 10 μM ([2]; duodenum lumen content, Duodenum content): > 60 min
half-life at 10 μM ([2]; ileum lumen content, Ileum content): 34 min
half-life at 10 μM ([2]; jejunum lumen content, Jejunum content): > 60 min
increase in tofacitinib concentration in cecum, proximal, and distal colon tissue versus oral tofacitinib [3]: five- to seven-fold
half-life at 30 μM (β-glucuronidase): < 5 min
half-life at 10 μM [4]: 1 to 15 min
Ki (JAK3): > 158 nM
Ki (JAK2): > 631 nM
